Source: patent US12102642B2, “Treatment of hypercoagulopathy in Cushing's syndrome by administration of glucocorticoid receptor modulators” (Corcept Therapeutics Incorporated, priority 2018, dated 2024)
Entries after “also recorded” stand apart in the source; their conditions may differ.

Legend:
[1] = test system: Cushing's syndrome patients; assay: Clinical study of relacorilant in Cushing's syndrome patients (coagulation factors, inflammation markers, comorbidities); type: in vivo, human
Description: In TABLE 1 above, the P-value is a Wilcoxon Signed Rank P-value; mean change from baseline indicates the mean change from the initial (baseline) values to the last-observed values; Factor VIII values are reported as percent of normal values; platelet counts and eosinophil counts are reported as numbers of cells per liter; APTT indicates activated partial thromboplastin time, measured in seconds; and serum osteocalcin measures levels of the vitamin K-related hormone osteocalcin outside of bone. […] Relacorilant was administered to the patients once per day for four months. Two groups of Cushing's syndrome patients received relacorilant. Group 1 received 100 milligrams per day (mg/day) which, if tolerated, was raised to 200 mg/day for the 16 weeks of the study. Group 2 received relacorilant doses according to the following schedule: the starting doses were 250 milligrams (mg) per day of relacorilant for four weeks, followed by 300 mg/day relacorilant for the next four weeks, followed by 350 mg/day relacorilant for a further four weeks, and then 400 mg relacorilant for another four weeks. […] Factor VIII and von Willebrand Factor at baseline, prior to relacorilant administration (left-most pair of columns); after four weeks of relacorilant treatment (middle pair of columns); and after 3 or 4 months of relacorilant treatment (right-most pair of columns). Factor VIII levels are reduced, as compared to baseline, at week four and after 3 or 4 months of relacorilant treatment. […] The APTT of Group 2 patients receiving relacorilant was measured at baseline (before relacorilant administration) and after 16 weeks (or following the last relacorilant administration for those patients who […] the full 16 weeks of relacorilant administration). […] Increased APTT indicates an increase in the time for blood coagulation; that is, a reduction in hypercoagulation.

[2] = test system: Cushing's syndrome patients; conditions: see U.S. Patent Application 62/783,015; cited from earlier work
[3] = baseline to last-observed values, cells per liter
[4] = generally observed within two weeks of achieving a therapeutic dose

SMILES: Cn1cc(S(=O)(=O)N2CCC3=Cc4c(cnn4-c4ccc(F)cc4)C[C@]3(C(=O)c3cc(C(F)(F)F)ccn3)C2)cn1 [relacorilant, (R)-(1-(4-fluorophenyl)-6-((1-methyl-1H-pyrazol-4-yl)sulfonyl)-4,4a,5,6,7,8-hexahydro-1H-pyrazolo[3,4-g]isoquinolin-4a-yl)(4-(trifluoromethyl)pyridin-2-yl)methanone]
- Coagulation profile (coagulation factors, thrombin-antithrombin) compared to baseline ([1]; FIG. 2B): improved compared to baseline
- APTT compared to baseline ([1]; Group 2 patients (250 to 400 mg/day), 12 patients, after 16 weeks or last administration (FIG. 2A), p-value 0.014): increased significantly
- Von Willebrand factor levels compared to baseline ([1]; after 3 or 4 months of relacorilant treatment (FIG. 1A)): return to baseline levels
- C-Reactive protein levels compared to baseline ([1]; after 3 or 4 months of relacorilant treatment (FIG. 3)): return to baseline levels
- Factor VIII levels compared to baseline ([1]; after 3 or 4 months of relacorilant treatment, end of study (FIG. 1A)): reduced; also recorded: normalized
- Abnormally elevated coagulation factors caused by excess cortisol activity ([1]; as early as after one month of treatment): Improvement/normalization
- Von Willebrand factor levels compared to baseline ([1]; at four weeks of relacorilant treatment (FIG. 1A)): initially rise somewhat
- C-Reactive protein levels compared to baseline ([1]; at four weeks of relacorilant treatment (FIG. 3)): initially rise somewhat
- Serum Osteocalcin, Mean Change from Baseline ([1]; baseline to last-observed values): 3.00 µg/L
- Coagulopathy (APTT), Mean Change from Baseline ([1]; baseline to last-observed values, activated partial thromboplastin time): +1.45 Seconds
- Coagulopathy (Platelets), Mean Change from Baseline [1, 3]: −68.82 10^9/L
- Inflammation (eosinophils), Mean Change from Baseline [1, 3]: 0.05 10^9/L
- Coagulopathy (Factor VIII), Mean Change from Baseline ([1]; baseline to last-observed values, percent of normal values, Cushing's syndrome patients, relacorilant once per day): −18.94%
- Thromboembolic events ([1]; clinical study of 35 Cushing's syndrome patients treated with relacorilant): No thromboembolic events were observed
- Hyperglycemia [1, 4]: improvement
- Hypertension [1, 4]: improvement
- Factor VIII levels compared to baseline ([1]; week four of relacorilant treatment (FIG. 1A)): reduced
- Effect on cortisol [2]: not raising cortisol
- Risk of hypokalemia [2]: not increasing the risk of hypokalemia
